Results as given in patent US6683103B2, “Sulfonamides for treatment of endothelin-mediated disorders” (Texas Biotechnology Corporation, priority 1997, dated 2004).
Like-named read-outs stand apart in the source and are kept apart here.

How the values were obtained:
[1] = biological target: T1, human ETB receptor (Homo sapiens, UniProt P24530); assay: Binding Test #2: inhibition of 125I-ET-1 binding to ETB receptors (transfected COS7 cell membranes); conditions: read-out: ETB
T1 construct: expressed in transfected cells; host or cells: COS7 cells
T1 sequence (P24530 27-442): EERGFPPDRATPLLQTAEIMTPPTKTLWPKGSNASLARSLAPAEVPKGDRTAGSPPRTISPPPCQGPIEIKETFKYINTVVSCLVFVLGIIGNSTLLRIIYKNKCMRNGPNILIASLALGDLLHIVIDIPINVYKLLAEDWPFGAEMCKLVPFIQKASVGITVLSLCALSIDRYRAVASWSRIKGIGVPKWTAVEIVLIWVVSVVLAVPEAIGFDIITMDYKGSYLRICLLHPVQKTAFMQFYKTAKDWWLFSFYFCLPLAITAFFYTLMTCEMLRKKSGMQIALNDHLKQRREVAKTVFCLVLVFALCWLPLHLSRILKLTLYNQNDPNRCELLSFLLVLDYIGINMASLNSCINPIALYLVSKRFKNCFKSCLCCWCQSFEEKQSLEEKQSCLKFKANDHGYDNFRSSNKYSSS
Description: (§1) Compounds that are potential endothelin antagonists are identified by testing their ability to compete with ^125I-labeled ET-1 for binding to human ETA receptors or ETB receptors present on isolated cell membranes. The effectiveness of the test compound as an antagonist or agonist of the biological tissue response of endothelin can also be assessed by measuring the effect on endothelin induced contraction of isolated rat thoracic aortic rings. The ability of the compounds to act as antagonists or agonists for ETB receptors can be assess by testing the ability of the compounds are to inhibit endothelin-1 induced prostacyclin release from cultured bovine aortic endothelial cells.
B. Endothelin Binding Inhibition—Binding Test #2: Inhibition of Binding to ETB Receptors
COS7 cells were transfected with DNA encoding the ETB receptor, The resulting cells, which express the human ETB receptor, were grown to confluence in T-150 flasks. Membrane was prepared as described above. The binding assay was performed as described above using the membrane preparation diluted with binding buffer to a concentration of 1 μg/50 μl.
Briefly, the COS7 cells, described above, that had been transfected with DNA encoding the ETB receptor and express the human ETB receptor on their surfaces were grown to confluence in T-1 75 flasks. Cells from multiple flasks were collected by scraping, pooled and centrifuged for 10 min at 190×g. The cells were resuspended in phosphate buffered saline (PBS) containing 10 mM EDTA using a Tenbroeck homogenizer. The suspension was centrifuged at 4° C. 57,800 X g for 15 min, the pellet was resuspended in 5 ml of buffer A (5mM HEPES buffer, pH 7.4 containing aprotinin (100 KIU/ml)) and then frozen and thawed once. Five ml of Buffer B (5 mM HEPES Buffer, pH 7.4 containing 10 mM MnCl2 and 0.001% deoxyribonuclease Type 1) was added, the suspension mixed by inversion and then incubated at 37° C. for 30 minutes. The mixture was centrifuged at 57,800×g as described above, the pellet washed twice with buffer A and then resuspended in buffer C (30 mM HEPES buffer, pH 7.4 containing aprotinin (100 KIU/ml) to give a final protein concentration of 2 mg/ml.
The binding assay was performed as described above using the membrane preparation diluted to give 1 μg/50 μl of binding buffer.

[2] = biological target: T2, human ETA receptors (Homo sapiens, UniProt P25101); assay: Binding Test #1: inhibition of 125I-ET-1 binding to ETA receptors (TE 671 cell membranes); conditions: read-out: ETA
T2 construct: endogenous in cells; host or cells: TE 671 cells (ATCC HTB 139)
T2 sequence (P25101 21-427): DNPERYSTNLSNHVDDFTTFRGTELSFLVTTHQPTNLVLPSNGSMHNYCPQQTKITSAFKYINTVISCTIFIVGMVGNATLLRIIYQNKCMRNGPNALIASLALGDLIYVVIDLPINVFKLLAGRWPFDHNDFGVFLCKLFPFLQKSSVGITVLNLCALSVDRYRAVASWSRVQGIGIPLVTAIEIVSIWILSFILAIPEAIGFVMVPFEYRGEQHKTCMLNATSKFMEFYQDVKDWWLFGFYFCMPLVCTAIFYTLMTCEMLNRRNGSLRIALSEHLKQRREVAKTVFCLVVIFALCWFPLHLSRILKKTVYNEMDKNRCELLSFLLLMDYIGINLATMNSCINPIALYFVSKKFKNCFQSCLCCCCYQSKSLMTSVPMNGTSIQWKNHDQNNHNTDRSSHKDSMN
Description: as §1
A. Endothelin Binding Inhibition—Binding Test #1: Inhibition of Binding to ETA Receptors
TE 671 cells (ATCC Accession No. HTB 139) express ETA receptors. These cells were grown to confluence in T-175 flasks. Cells from multiple flasks were collected by scraping, pooled and centrifuged for 10 min at 190×g. The cells were resuspended in phosphate buffered saline (PBS) containing 10 mM EDTA using a Tenbroeck homogenizer. The suspension was centrifuged at 4° C. at 57,800×g for 15 min, the pellet was resuspended in 5 ml of buffer A (5 mM HEPES buffer, pH 7.4 containing aprotinin (100 KIU/ml)) and then frozen and thawed once. 5 ml of Buffer B (5 mM HEPES Buffer, pH 7.4 containing 10 mM MnCl2 and 0.001% deoxyribonuclease Type 1) was added, the suspension mixed by inversion and then incubated at 37° C. for 30 minutes. The mixture was centrifuged at 57,800×g as described above, the pellet washed twice with buffer A and then resuspended in buffer C (30 mM HEPES buffer, pH 7.4 containing aprotinin (100 KIU/ml) to give a final protein concentration of 2 mg/ml and stored at −70° C. until use.
The membrane suspension was diluted with binding buffer (30 mM HEPES buffer, pH 7.4 containing 150 mM NaCl, 5mM MgCl2, 0.5% Bacitracin) to a concentration of 8 μg/50 μl. ^125I-endothelin-1 (3,000 cpm, […]) was added to 50 μL of either: (A) endothelin-1 (for non specific binding) to give a final concentration 80 nM); (B) binding buffer (for total binding); or (C) a test compound (final concentration 1 nM to 100 μM). The membrane suspension (50 μL), containing up to 8 μg of membrane protein, was added to each of (A), (B), or (C). Mixtures were shaken, and incubated at 4° C. for 16-18 hours, and then centrifuged at […] for 25 min at 2,500×g. Alternatively, the incubation was conducted at 24° C. […] This, must be kept in mind when comparing IC50 concentrations among compounds provided herein.
The supernatant, containing unbound radioactivity, was decanted and the pellet counted on a Genesys multiwell gamma counter. The degree of inhibition of binding (D) was calculated according to the following equation: [formula]
Each test was generally performed in triplicate.

[3] = Table 2, † incubation at 24° C.
[4] = Table 1, † incubation at 24° C.

IC50 ([1]; Table 1, incubation at 4° C.)	IC50 ([2]; Table 1, incubation at 4° C.)	IC50 [1, 4]	IC50 [2, 4]	SMILES	further results
		2970 nM	166 nM	Cc1ccc(C=CCc2sccc2S(=O)(=O)Nc2onc(C)c2Br)c(C)c1 [N-(4-bromo-3-methyl-5-isoxazolyl)-2-(2,4-dimethylcinnamyl)thiophene-3-sulfonamide]	
2840 nM	44 nM			CCCCc1ccc(NC(=O)c2sccc2S(=O)(=O)Nc2onc(C)c2Br)cc1 [N-(4-bromo-3-methyl-5-isoxazolyl)-2-(4-butylphenyl)aminocarbonylthiophene-3-sulfonamide]	
2820 nM	11 nM			Cc1noc(NS(=O)(=O)c2ccsc2C(=O)Nc2ccc(C(C)(C)C)cc2)c1Br [N-(4-bromo-3-methyl-5-isoxazolyl)-2-(4-t-butylphenyl)aminocarbonylthiophene-3-sulfonamide]	
18800 nM	5.4 nM			Cc1noc(NS(=O)(=O)c2ccsc2C(=O)Nc2ccccc2)c1Br [N-(4-bromo-3-methyl-5-isoxazolyl)-2-(N-phenylaminocarbonyl)thiophene-3-sulfonamide]	
98100 nM	20.8 nM			COC(=O)c1sccc1S(=O)(=O)Nc1onc(C)c1Br [N-(4-bromo-3-methyl-5-isoxazolyl)-2-(carbomethoxy)thiophene-3-sulfonamide]	
		3280 nM	80.4 nM	Cc1cc2c(cc1C=CCc1sccc1S(=O)(=O)Nc1onc(C)c1Br)OCO2 [N-(4-bromo-3-methyl-5-isoxazolyl)-2-[2-methyl-4,5-(methylenedioxy)cinnamyl]thiophene-3-sulfonamide]	
		8900 nM	61.9 nM	Cc1cc2c(cc1CCc1sccc1S(=O)(=O)Nc1onc(C)c1Br)OCO2 [N-(4-bromo-3-methyl-5-isoxazolyl)-2-[2-methyl-4,5-(methylenedioxy)phenethyl]thiophene-3-sulfonamide]	
		37000 nM	89 nM	Cc1noc(NS(=O)(=O)c2ccsc2C(=O)NC(=O)c2ccc3c(c2)OCO3)c1Br [N-(4-bromo-3-methyl-5-isoxazolyl)-2-[(3,4-methylenedioxy)benzoyl]aminocarbonyl]thiophene-3-sulfonamide]	
		15000 nM	2000 nM	Cc1noc(NS(=O)(=O)c2ccsc2C(=O)c2ccc3c(c2)OCO3)c1Br [N-(4-bromo-3-methyl-5-isoxazolyl)-2-[(3,4-methylenedioxy)benzoyl]thiophene-3-sulfonamide]	
1670 nM	< 10 nM			Cc1ccc(NC(=O)c2sccc2S(=O)(=O)Nc2onc(C)c2Br)cc1 [N-(4-bromo-3-methyl-5-isoxazolyl)-2-[-(4-tolulylaminocarbonyl]thiophene-3-sulfonamide]	
1130 nM	< 10 nM			Cc1noc(NS(=O)(=O)c2ccsc2C(=O)Nc2ccc(C(C)C)cc2)c1Br [N-(4-bromo-3-methyl-5-isoxazolyl)-2-[N-(4-isopropylphenyl)aminocarbonyl]thiophene-3-sulfonamide]	
1760 nM	~8 nM			CCC(C)c1ccc(NC(=O)c2sccc2S(=O)(=O)Nc2onc(C)c2Br)cc1 (stereo not drawn) [N-(4-bromo-3-methyl-5-isoxazolyl)-2-[N-(4-sec-butylphenyl)aminocarbonyl]thiophene-3-sulfonamide]	

Second part, the compound before the results:

SMILES	IC50 ([1]; Table 1, incubation at 4° C.)	IC50 ([2]; Table 1, incubation at 4° C.)	IC50 [1, 4]	IC50 [2, 4]	further results
Cc1noc(NS(=O)(=O)c2sc3ccc(Cl)cc3c2C)c1Br [N-(4-Bromo-3-methyl-5-isoxazolyl)-5-chloro-3-methylbenzo[b]thiophene-2-sulfonamide]	1630 nM	960 nM			
Cc1noc(NS(=O)(=O)c2ccc(-c3cc(C(F)(F)F)n(C)n3)s2)c1Br [N-(4-Bromo-3-methyl-5-isoxazolyl)-5-{3-[1-methyl-5-(trifluoromethyl)pyrazolyl]}thiophene-2-sulfonamide]	~360 nM	~6700 nM			
Cc1c(C(F)(F)F)noc1NS(=O)(=O)c1ccc(-c2ccccc2)cc1 [N-(4-Methyl-3-trifluoromethyl-5-isoxazolyl)-4-biphenylsulfonamide]					IC50 ([1]; Table 2, incubation at 4° C.): 1700 nM; IC50 [1, 3]: 5620 nM; IC50 ([2]; Table 2, incubation at 4° C.): 19000 nM
CCCCCCCCCCCCCc1c(C(F)(F)F)noc1NS(=O)(=O)c1ccc(-c2ccccc2)cc1 [N-(4-Tridecyl-3-trifluoromethyl-5-isoxazolyl)-4-biphenylsulfonamide]					IC50 ([1]; Table 2, incubation at 4° C.): 990 ± 200 nM; IC50 [1, 3]: 950 nM; IC50 ([2]; Table 2, incubation at 4° C.): 34000 ± 9000 nM; IC50 [2, 3]: 33000 nM
Cc1noc(NS(=O)(=O)c2cccs2)c1Br [N-(4-bromo-3-methyl-5-isoxazolyl)2-thiophenesulfonamide]	27700 ± 15000 nM	95 ± 70 nM			
Cc1noc(NS(=O)(=O)c2cc3ccccc3n2C)c1Br [N-(4-bromo-3-methyl-5-isoxazolyl)-1-methylindole-2-sulfonamide]			~100000 nM	77000 nM	
Cc1noc(NS(=O)(=O)c2c(C)sc(C)c2-c2ccccc2)c1Br [N-(4-bromo-3-methyl-5-isoxazolyl)-2,5-dimethyl-4-phenylthiophene-3-sulfonamide]	~100000 nM	1400 nM			
Cc1cc(S(=O)(=O)Nc2onc(C)c2Br)c(C)o1 [N-(4-bromo-3-methyl-5-isoxazolyl)-2,5-dimethylfuran-3-sulfonamide]	36500 nM	460 nM			
Cc1noc(NS(=O)(=O)c2ccsc2CCc2ccc3c(c2)OCO3)c1Br [N-(4-bromo-3-methyl-5-isoxazolyl)-2-[(3,4-methylenedioxy)phenethyl]thiophene-3-sulfonamide]			9200 nM	210 nM	
